Measurements from patent publication US9771369B2, “Compounds and methods for kinase modulation, and indications therefor” (Plexxikon Inc., priority 2014, dated 2017).

Columns and labels:
[1] = system: BaF3-FL KIT D816V or BaF3-FL KIT V560G/D816V cell line; test: Cell-based assays of c-Kit mutant kinase activity (cell proliferation, ATPlite); settings: at least one of the c-kit cell assays of Example 7
Outline: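 BaF3 cells dependent on transfected full-length human KIT D816V or V560G/D816V (pCI-Neo, CMV promoter) were seeded at 1×10^4 cells/well and exposed to 8-point 1:3 dilutions from 10 μM top (0.2% DMSO) for three days at 37° C. ATPlite luminescence gave cell number; IC50 from concentration-response.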

c-kit mutant D816V = c-kit mutant D816V (Homo sapiens (Human), UniProt P10721, D816V/DEL694-753); test: c-Kit mutant D816V biochemical assay (AlphaScreen kinase activity)
Chain of c-kit mutant D816V (P10721 other isoform, or with tags, fused parts or gaps D816V/del 694-753): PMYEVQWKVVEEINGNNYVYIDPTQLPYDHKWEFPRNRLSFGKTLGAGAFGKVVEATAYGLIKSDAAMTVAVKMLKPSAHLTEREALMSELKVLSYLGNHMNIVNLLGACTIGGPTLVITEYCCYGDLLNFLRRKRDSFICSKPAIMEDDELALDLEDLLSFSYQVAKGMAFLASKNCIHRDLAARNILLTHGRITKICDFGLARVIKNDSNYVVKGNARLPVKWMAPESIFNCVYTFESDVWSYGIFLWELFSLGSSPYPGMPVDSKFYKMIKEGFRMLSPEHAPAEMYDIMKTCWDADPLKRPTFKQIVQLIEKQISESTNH
Outline: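 Recombinant His-tagged c-Kit D816V kinase domain (residues 551-934, insert 694-753 deleted, E. coli-expressed) phosphorylating 30 nM biotin-(E4Y)10 with 10 μM ATP, HEPES pH 7.2, Mg/Mn, 5% DMSO; 30 min, room temperature. Phosphorylation detected by AlphaScreen (streptavidin donor/PY30 acceptor beads); IC50 from 8-point 1:3 series.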

Compound	IC50 [1] [nM]	IC50 (c-kit mutant D816V) [µM]
COc1ccc(-c2cc3c(N4CCC(C)(c5nc(C)c(-c6cccc(OC(F)F)c6)[nH]5)CC4)ncnc3[nH]2)cn1 [P-3193, 4-[4-[5-[3-(difluoromethoxy)phenyl]-4-methyl-1H-imidazol-2-yl]-4-methyl-1-piperidyl]-6-(6-methoxy-3-pyridyl)-7H-pyrrolo[2,3-d]pyrimidine]	< 10000	0.0001 to 1
Cc1nc(C2(C)CCN(c3ncnc4[nH]c(-c5ccc(C#N)cc5)cc34)CC2)[nH]c1-c1cccc(OC(F)F)c1 [P-3194, 4-[4-[4-[5-[3-(difluoromethoxy)phenyl]-4-methyl-1H-imidazol-2-yl]-4-methyl-1-piperidyl]-7H-pyrrolo[2,3-d]pyrimidin-6-yl]benzonitrile]	< 10000	0.0001 to 1
Cc1nc(C2(C)CCN(c3ncnc4[nH]c(-c5ccc(C#N)cc5)cc34)CC2)[nH]c1-c1ccc(OC(F)F)cc1 [P-3195, 4-[4-[4-[5-[4-(difluoromethoxy)phenyl]-4-methyl-1H-imidazol-2-yl]-4-methyl-1-piperidyl]-7H-pyrrolo[2,3-d]pyrimidin-6-yl]benzonitrile]	< 10000	0.0001 to 1
Cc1cc2c(N3CCC(C)(c4nc(C)c(-c5ccc(OC(F)F)cc5)[nH]4)CC3)ncnc2[nH]1 [P-3196, 4-[4-[5-[4-(difluoromethoxy)phenyl]-4-methyl-1H-imidazol-2-yl]-4-methyl-1-piperidyl]-6-methyl-7H-pyrrolo[2,3-d]pyrimidine]	< 10000	0.0001 to 1
CCc1[nH]c(C2CCN(c3ncnc4[nH]c(-c5cnn(C(F)F)c5)cc34)CC2)nc1C [P-3197, 6-[1-(difluoromethyl)pyrazol-4-yl]-4-[4-(5-ethyl-4-methyl-1H-imidazol-2-yl)-1-piperidyl]-7H-pyrrolo[2,3-d]pyrimidine]	< 10000	0.0001 to 1
CCc1[nH]c(C2CCN(c3ncnc4[nH]c(-c5ccc(C#N)cc5)cc34)CC2)nc1C [P-3198, 4-[4-[4-(5-ethyl-4-methyl-1H-imidazol-2-yl)-1-piperidyl]-7H-pyrrolo[2,3-d]pyrimidin-6-yl]benzonitrile]	< 10000	0.0001 to 1
COc1ccc(-c2[nH]c(C3(C)CCN(c4ncnc5[nH]c(-c6ccc(C(=O)O)cc6)cc45)CC3)nc2C)cc1F [P-3199, 4-[4-[4-[5-(3-fluoro-4-methoxy-phenyl)-4-methyl-1H-imidazol-2-yl]-4-methyl-1-piperidyl]-7H-pyrrolo[2,3-d]pyrimidin-6-yl]benzoic acid]	< 10000	0.0001 to 1
Cc1nc(C2(C)CCN(c3ncnc4[nH]nc(C)c34)CC2)[nH]c1-c1ccc(Cl)cc1 [P-3200, 4-[4-[5-(4-chlorophenyl)-4-methyl-1H-imidazol-2-yl]-4-methyl-1-piperidyl]-3-methyl-1H-pyrazolo[3,4-d]pyrimidine]	< 10000	0.0001 to 1
Cc1nc(C2(C)CCN(c3ncnc4[nH]nc(C)c34)CC2)[nH]c1-c1cccc(OC(F)F)c1 [P-3201, 4-[4-[5-[3-(difluoromethoxy)phenyl]-4-methyl-1H-imidazol-2-yl]-4-methyl-1-piperidyl]-3-methyl-1H-pyrazolo[3,4-d]pyrimidine]	< 10000	0.0001 to 1
COc1ccc(-c2[nH]c(C3(C)CCN(c4ncnc5[nH]nc(C)c45)CC3)nc2C)cc1F [P-3202, 4-[4-[5-(3-fluoro-4-methoxy-phenyl)-4-methyl-1H-imidazol-2-yl]-4-methyl-1-piperidyl]-3-methyl-1H-pyrazolo[3,4-d]pyrimidine]	< 10000	0.0001 to 1
Cc1nc(C2(C)CCN(c3ncnc4[nH]nc(C)c34)CC2)[nH]c1-c1ccc2c(c1)OC(F)(F)O2 [P-3203, 4-[4-[5-(2,2-difluoro-1,3-benzodioxol-5-yl)-4-methyl-1H-imidazol-2-yl]-4-methyl-1-piperidyl]-3-methyl-1H-pyrazolo[3,4-d]pyrimidine]	< 10000	0.0001 to 1
Fc1ccc(-c2cc3c(N4CCC(c5nnc(-c6ccc(F)cc6)[nH]5)CC4)ncnc3[nH]2)cc1 [P-3206, 6-(4-fluorophenyl)-4-[4-[5-(4-fluorophenyl)-4H-1,2,4-triazol-3-yl]-1-piperidyl]-7H-pyrrolo[2,3-d]pyrimidine]	< 10000	0.0001 to 1
COc1cc(-c2cc3c(N4CCC(c5nnc(-c6cccc(OC(F)F)c6)[nH]5)CC4)ncnc3[nH]2)ccn1 [P-3207, 4-[4-[5-[3-(difluoromethoxy)phenyl]-4H-1,2,4-triazol-3-yl]-1-piperidyl]-6-(2-methoxy-4-pyridyl)-7H-pyrrolo[2,3-d]pyrimidine]	< 10000	1 to 10
CCOc1ccc(-c2[nH]c(C3(C)CCN(c4ncnc5[nH]c(-c6ccc(OC)nc6)cc45)CC3)nc2C)cc1F [P-3209, 4-[4-[5-(4-ethoxy-3-fluoro-phenyl)-4-methyl-1H-imidazol-2-yl]-4-methyl-1-piperidyl]-6-(6-methoxy-3-pyridyl)-7H-pyrrolo[2,3-d]pyrimidine]	< 10000	0.0001 to 1
CCOc1ccc(-c2[nH]c(C3(C)CCN(c4ncnc5[nH]c(-c6cnn(C(F)F)c6)cc45)CC3)nc2C)cc1F [P-3210, 6-[1-(difluoromethyl)pyrazol-4-yl]-4-[4-[5-(4-ethoxy-3-fluoro-phenyl)-4-methyl-1H-imidazol-2-yl]-4-methyl-1-piperidyl]-7H-pyrrolo[2,3-d]pyrimidine]	< 10000	0.0001 to 1
COc1ccc(-c2[nH]c(C3(C)CCN(c4ncnc5[nH]c(-c6ccc(C#N)nc6)cc45)CC3)nc2C)cc1F [P-3211, 5-[4-[4-[5-(3-fluoro-4-methoxy-phenyl)-4-methyl-1H-imidazol-2-yl]-4-methyl-1-piperidyl]-7H-pyrrolo[2,3-d]pyrimidin-6-yl]pyridine-2-carbonitrile]	< 10000	0.0001 to 1
COc1ccc(-c2[nH]c(C3(C)CCN(c4ncnc5[nH]c(-c6ccc(C(N)=O)cc6)cc45)CC3)nc2C)cc1F [P-3212, 4-[4-[4-[5-(3-fluoro-4-methoxy-phenyl)-4-methyl-1H-imidazol-2-yl]-4-methyl-1-piperidyl]-7H-pyrrolo[2,3-d]pyrimidin-6-yl]benzamide]	< 10000	0.0001 to 1
COc1ccc(-c2[nH]c(C3(C)CCN(c4ncnc5[nH]c(-c6ccc(NS(C)(=O)=O)cc6)cc45)CC3)nc2C)cc1F [P-3213, N-[4-[4-[4-[5-(3-fluoro-4-methoxy-phenyl)-4-methyl-1H-imidazol-2-yl]-4-methyl-1-piperidyl]-7H-pyrrolo[2,3-d]pyrimidin-6-yl]phenyl]methanesulfonamide]	< 10000	0.0001 to 1
COc1ccc(-c2[nH]c(C3(C)CCN(c4ncnc5[nH]c(-c6ccc(OCC(=O)O)cc6)cc45)CC3)nc2C)cc1F [P-3214, 2-[4-[4-[4-[5-(3-fluoro-4-methoxy-phenyl)-4-methyl-1H-imidazol-2-yl]-4-methyl-1-piperidyl]-7H-pyrrolo[2,3-d]pyrimidin-6-yl]phenoxy]acetic acid]	< 10000	0.0001 to 1
COc1ccc(-c2[nH]c(C3(C)CCN(c4ncnc5[nH]c(-c6ccc(N7CCOCC7)nc6)cc45)CC3)nc2C)cc1F [P-3215, 4-[5-[4-[4-[5-(3-fluoro-4-methoxy-phenyl)-4-methyl-1H-imidazol-2-yl]-4-methyl-1-piperidyl]-7H-pyrrolo[2,3-d]pyrimidin-6-yl]-2-pyridyl]morpholine]	< 10000	0.0001 to 1
COc1ccc(-c2[nH]c(C3(C)CCN(c4ncnc5[nH]c(-c6ccc(C(N)=O)cc6)cc45)CC3)nc2C)cc1C [P-3216, 4-[4-[4-[5-(4-methoxy-3-methyl-phenyl)-4-methyl-1H-imidazol-2-yl]-4-methyl-1-piperidyl]-7H-pyrrolo[2,3-d]pyrimidin-6-yl]benzamide]	< 10000	0.0001 to 1
COc1ccc(-c2[nH]c(C3(C)CCN(c4ncnc5[nH]c(-c6ccc(OCC(=O)O)cc6)cc45)CC3)nc2C)cc1C [P-3217, 2-[4-[4-[4-[5-(4-methoxy-3-methyl-phenyl)-4-methyl-1H-imidazol-2-yl]-4-methyl-1-piperidyl]-7H-pyrrolo[2,3-d]pyrimidin-6-yl]phenoxy]acetic acid]	< 10000	0.0001 to 1
CNC(=O)c1ccc(-c2cc3c(N4CCC(C)(c5nc(C)c(-c6ccc(OC)c(C)c6)[nH]5)CC4)ncnc3[nH]2)cn1 [P-3218, 5-[4-[4-[5-(4-methoxy-3-methyl-phenyl)-4-methyl-1H-imidazol-2-yl]-4-methyl-1-piperidyl]-7H-pyrrolo[2,3-d]pyrimidin-6-yl]-N-methyl-pyridine-2-carboxamide]	< 10000	0.0001 to 1
COc1ccc(-c2[nH]c(C3(C)CCN(c4ncnc5[nH]c(-c6ccc(N7CCOCC7)nc6)cc45)CC3)nc2C)cc1C [P-3219, 4-[5-[4-[4-[5-(4-methoxy-3-methyl-phenyl)-4-methyl-1H-imidazol-2-yl]-4-methyl-1-piperidyl]-7H-pyrrolo[2,3-d]pyrimidin-6-yl]-2-pyridyl]morpholine]	< 10000	0.0001 to 1
CNC(=O)c1ccc(-c2cc3c(N4CCC(C)(c5nc(C)c(-c6ccc(OC)c(F)c6)[nH]5)CC4)ncnc3[nH]2)cn1 [P-3220, 5-[4-[4-[5-(3-fluoro-4-methoxy-phenyl)-4-methyl-1H-imidazol-2-yl]-4-methyl-1-piperidyl]-7H-pyrrolo[2,3-d]pyrimidin-6-yl]-N-methyl-pyridine-2-carboxamide]	< 10000	0.0001 to 1
